According to article PMC4414309, “Target Modulation by a Kinase Inhibitor Engineered to Induce a Tandem Blockade of the Epidermal Growth Factor Receptor (EGFR) and c-Src: The Concept of Type III Combi-Targeting” (PLoS ONE, 2015):

Columns and labels:
EGFR = biological target: T1, EGFR (Homo sapiens, UniProt P00533); test: In vitro kinase assay, EGFR; format: biochemical; settings: ATP 50 μM, average of three independent experiments in duplicate, read-out: IC50 EGFR kinase inhibition
T1 construct: purchased Enzo Life Sciences Inc, NY, USA; Signal Chem, Richmond, Canada
T1 sequence (P00533 25-1210): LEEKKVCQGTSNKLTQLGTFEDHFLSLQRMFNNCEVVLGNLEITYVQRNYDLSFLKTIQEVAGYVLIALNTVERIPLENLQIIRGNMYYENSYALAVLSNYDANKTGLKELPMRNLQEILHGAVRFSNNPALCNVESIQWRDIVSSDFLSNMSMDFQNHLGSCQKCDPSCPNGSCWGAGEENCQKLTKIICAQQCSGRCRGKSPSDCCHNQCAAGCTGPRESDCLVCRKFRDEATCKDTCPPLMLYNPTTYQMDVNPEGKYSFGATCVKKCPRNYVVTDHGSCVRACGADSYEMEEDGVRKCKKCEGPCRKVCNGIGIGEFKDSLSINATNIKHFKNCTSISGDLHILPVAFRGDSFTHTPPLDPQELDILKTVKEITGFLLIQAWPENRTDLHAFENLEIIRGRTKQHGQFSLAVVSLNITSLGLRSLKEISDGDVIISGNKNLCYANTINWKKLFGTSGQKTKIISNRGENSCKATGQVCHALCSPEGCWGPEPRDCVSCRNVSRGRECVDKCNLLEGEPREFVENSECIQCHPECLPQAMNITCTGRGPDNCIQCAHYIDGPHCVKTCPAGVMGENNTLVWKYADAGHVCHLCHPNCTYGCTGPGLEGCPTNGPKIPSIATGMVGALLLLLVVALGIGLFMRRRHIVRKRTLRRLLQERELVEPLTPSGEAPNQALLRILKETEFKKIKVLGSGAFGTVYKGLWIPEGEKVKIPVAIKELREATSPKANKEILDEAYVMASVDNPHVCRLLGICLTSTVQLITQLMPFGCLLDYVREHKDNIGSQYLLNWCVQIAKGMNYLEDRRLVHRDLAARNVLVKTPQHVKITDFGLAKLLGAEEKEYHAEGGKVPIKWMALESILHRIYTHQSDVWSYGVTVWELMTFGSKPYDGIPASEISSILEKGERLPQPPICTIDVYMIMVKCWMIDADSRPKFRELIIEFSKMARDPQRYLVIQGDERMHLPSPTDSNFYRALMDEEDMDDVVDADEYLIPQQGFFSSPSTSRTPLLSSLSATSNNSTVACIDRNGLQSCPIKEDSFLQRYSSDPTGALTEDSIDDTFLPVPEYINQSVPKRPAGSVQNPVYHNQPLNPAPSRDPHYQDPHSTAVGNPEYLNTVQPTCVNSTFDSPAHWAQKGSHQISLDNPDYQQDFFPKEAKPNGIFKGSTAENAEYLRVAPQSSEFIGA
Procedure: The EGFR and c-Src kinase assays were performed in 96-well plates (NuncMaxisorp) coated with PGT (poly L-glutamic acid L-tyrosine, 4:1, Sigma Aldrich, MO, USA) and incubated at 37°C for 48h prior to using. PGT served as the substrate to be phosphorylated by EGFR (Enzo Life Sciences Inc, NY, USA, Signal Chem, Richmond, Canada) and c-Src (Enzo Life Sciences Inc, NY, USA, Signal Chem, Richmond, Canada) in the presence of ATP (50 μM). […] To each well, 15 ng of EGFR (20 μg/ml) or 6 ng of c-Src (0.1 μg/μl) were added. The phosphorylated substrate was detected using an HRP-conjugated anti-phosphotyrosine antibody (Santa Cruz Biotechnology, CA). The signal was developed by the addition of 3, 3’, 5, 5’-tetramethylbenzidine peroxidase substrate (Kierkegaard and Perry Laboratories, Gaithersburg, MD) and the colorimetric reaction was monitored at 450 nm using a microplate reader ELx808 (BioTek Instruments). The IC50 values were calculated using GraphPad Prism 6.0 (GraphPadSoftware, Inc., San Diego, CA). Each experiment was carried out at least three times, in duplicate.

phospho-EGFR (Y1068) = test: Western blot of EGFR phosphorylation in cells; format: cell-based, mouse
Procedure: (§1) NIH3T3-Her14 and 4T1 cells grown in 10% FBS containing media were plated (~ 1 x 10^6 cells/well) in 6-well plates and allowed to attach overnight (37°C, 5% CO2). The cells were rinsed twice with PBS twenty-four hours later and starved overnight on addition of serum-free media. Thereafter, they were treated with different doses of AL776 for 2 hours, washed with PBS (twice) and stimulated with 50 ng/ml EGF for 30 min at 37°C. Cells were washed, detached by scraping in ice-cold PBS and collected by centrifugation for 15 min at 3000 rpm. Cell pellets were re-suspended in cold lysis buffer 50 mM Tris-HCl pH 7.5; 150 mM NaCl; 1% Nonidet P-40, 1 mM EDTA; 5 mM NaF; 1 mM Na3VO4; protease inhibitor tablet (Roche Biochemicals, Laval, Canada)]. Lysates were kept on ice for 1 h and collected by centrifugation at 13,000 rpm for 20 min at 4°C. The concentration of protein was determined using the Bio-Rad protein assay kit (Bio-Rad laboratories, Hercules, CA). Equal amounts of proteins were loaded, resolved on 10% SDS-PAGE and thereafter transferred to a polyvinylidenedifluoride (PVDF) membrane (Milipore, Bedford, MA). […]

phospho-Src (Y416) = test: Western blot of c-Src phosphorylation in cells; format: cell-based, mouse
Procedure: as §1

[1] = tested on: NIH3T3-Her14 (EGFR transfected) cells; test: Absorption and hydrolysis kinetics of AL776 in cells (HPLC); format: in vitro ADME, mouse
Procedure: NIH3T3-Her14 cells were seeded in 6-well plates (1 x 10^6 cells/well) and grown in DMEM with 10% FBS for 24 h. Cells were then treated with 25 μM of AL776 and incubated at 37°C for 1h, 2h, 6h, 24h or 48h. The media was collected and extracted using twice the volume of methanol, on ice and centrifuged for 20 min at 13,000 rpm at 4°C. The resulting supernatant was filtered, evaporated to dryness and reconstituted with 100 μL of methanol. Cells were collected using trypsin and the cell pellet obtained was rinsed once with PBS and lysed with methanol (500 μL /tube) on ice for 1h. The lysate was centrifuged at 13,000 rpm for 20 min at 4°C and the resulting supernatant was collected into a separate tube and the remaining pellet was subjected to lysis two more times (250 μL /tube). The supernatant from each lysis step were pooled all together, filtered, evaporated to dryness and resuspended in 100 μL of methanol before further analyzing the samples. HPLC analysis was performed using a ACE 5 C18 5 μm column (150 mmx4.6 mm) under elution conditions of gradient 70–75% methanol:water for the first 5 min and isocratic methanol elution until 30 min, using a 0.75 mL/min flow rate. Analyses were performed using a Thermoquest P4000 equipped with a UV2000 detector and an AS300 Autosampler.

4T1 tumours = format: in vivo; settings: 40 mg/kg i.v. once/day for 5 days
MDA-MB-231 cells = test: Growth inhibition, SRB assay, MDA-MB-231; settings: Homo sapiens, MDA-MB-231, 120 h, read-out: IC50 growth inhibition MDA-MB-231
Procedure: (§2) Growth inhibition was measured in cells using the sulforhodamine B (SRB) assay [48]. […] The plates were subsequently rinsed with 1% acetic acid, and allowed to dry overnight. […] The results were analyzed using GraphPad Prism 6.0 (GraphPadSoftware, Inc., San Diego, CA) and the sigmoidal dose response curve was used to determine IC50 values. Each experiment was carried out at least four times, in triplicate.

[2] = tested on: NIH3T3-Her14 (EGFR transfected) cells; test: Growth inhibition, SRB assay, NIH3T3-Her14
Procedure: as §2

[3] = tested on: EGFR phosphorylation in 4T1 tumours; test: Pharmacodynamics in 4T1 tumours, EGFR phosphorylation; settings: i.v., AL776 40 mg/kg, gefitinib + dasatinib 20 mg/kg each
Procedure: Mice were implanted with 4T1 mammary tumour cells, 15 million cells/flank (suspended in 200 μL PBS), subcutaneously.
Mice were sacrificed 1h or 24h after treatment and their tumours were collected and snap frozen at -80°C for further analysis using western blots. Tumours were crushed using a mortar/pestle chilled using liquid nitrogen and lysed with RIPA buffer diluted to a 1X concentration and supplemented with 1mM PMSF (Cell Signaling Technology, USA). Western blot analysis was carried out with the tumour samples, similar to the method described earlier.

NIH3T3 wild type cells = test: Growth inhibition, sulforhodamine B (SRB) assay, NIH3T3 wild type; settings: Mus musculus, NIH3T3, 120 h, read-out: IC50 growth inhibition NIH3T3 – Wt
Procedure: as §2

[4] = NIH3T3-Her14 and 4T1 cells, 2 h drug, EGF 50 ng/ml 30 min

Cc1nc(Nc2ncc(C(=O)Nc3c(C)cccc3Cl)s2)cc(N2CCN(CCOC(=O)CCC(=O)OCCN(C)Cc3ccc(C(=O)Nc4ccc5ncnc(Nc6cccc(Cl)c6)c5c4)cc3)CC2)n1 [AL776]
IC50 (EGFR): 120 nM | Concentration of maximal inhibition of EGFR phosphorylation (phospho-EGFR (Y1068); [4]): 1 µM | Concentration of robust inhibition of EGFR phosphorylation in cells (phospho-EGFR (Y1068); in cells): 0.25 to 1 µM | Concentration of maximal inhibition of c-Src phosphorylation (phospho-Src (Y416); [4]): 1 µM | Concentration of robust inhibition of c-Src phosphorylation in cells (phospho-Src (Y416); in cells): 0.25 to 1 µM | Detection of AL776 in cells and extracellular medium ([1]; 25 μM, 24–48h): detectable inside the cells but not in the extracellular medium | Intact AL776 found in the cells ([1]; 24h): 50% | Tumour mass at end of study, control versus treated (4T1 tumours): no difference observed | Effect on tumour growth (tumour volume) (4T1 tumours; monitored two weeks): unable to block tumour growth | IC50 (MDA-MB-231 cells): 50 ± 4 nM | Rank of growth inhibitory potency among the binary targeting molecules ([2]; EGFR transfectant, S2 Fig.): most potent on the EGFR transfectant | IC50 ([2]; Mus musculus, 120 h, read-out: IC50 growth inhibition NIH3T3 – Her14): 180 nM | Growth inhibitory potency compared with gefitinib or dasatinib ([2]; NIH3T3-Her14 cells, 5 days): 2–4 fold | Inhibition of EGFR phosphorylation in tumours ([3]; 1h post-administration): strong blockade | Inhibition of EGFR phosphorylation in tumours ([3]; 24 h post-treatment): reversed | IC50 (NIH3T3 wild type cells): 7600 ± 3000 nM
